These results are taken from PubChem BioAssay (NCI).

Where “and” joins values, the source holds several entries; their conditions need not be identical. Equal values may be shown once.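 How tested: cells in 96-well plates exposed to compound for 48 hours at five concentrations. GI50 = concentration required for 50% inhibition of growth. TGI: concentration producing complete growth inhibition.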 Where only a bound is given, the exact number is not on record here.

Some test systems named below: SK-MEL-5 melanoma; CAKI-1 renal; SK-OV-3 ovarian; SF-268 CNS; HL-60(TB) leukemia; NCI-H460 lung; OVCAR-5 ovarian; M14 melanoma; BT-549 breast; PC-3 prostate.
Test in all cases: inhibition of tumour cell growth, NCI panel, 48 h

Regarding `O=C(NC1C2CC3CC(C2)CC1C3)c1cc(/C=C/c2ccccc2)[nH]c(=S)n1` (stereo not given), the TGI with SK-MEL-5 melanoma, in the test with CAKI-1 renal, with SK-OV-3 ovarian, in the test on SF-268 CNS, with HL-60(TB) leukemia and in the test on NCI-H460 lung was over 100 µM each time. Further, the TGI with OVCAR-5 ovarian and in the test with M14 melanoma was over 100 µM throughout.
Turning to `COc1ccc2oc(C(=O)O)c3c2c1CCC3`, the TGI in the test on SK-MEL-5 melanoma, in the test on CAKI-1 renal, with SK-OV-3 ovarian, in the test with HL-60(TB) leukemia, in the test with NCI-H460 lung and in the test with M14 melanoma was over 100 µM in each case.
Turning to `O=S(O)CCCSSc1ccccc1`, the TGI with SK-MEL-5 melanoma, in the test on CAKI-1 renal, with SK-OV-3 ovarian, in the test with SF-268 CNS, in the test on NCI-H460 lung and in the test with OVCAR-5 ovarian was over 100 µM each time. The TGI in the test with M14 melanoma is over 100 µM.
For `CC1=C[P+](Cc2ccccc2)(c2ccccc2)CC1` (stereo not given), the TGI was > 100 µM and 56.7 µM and 84.1 µM in the test on SK-MEL-5 melanoma; over 100 µM in the test with SK-OV-3 ovarian; over 100 µM with HL-60(TB) leukemia; over 100 µM with NCI-H460 lung; over 100 µM in the test with OVCAR-5 ovarian; over 100 µM in the test with M14 melanoma.
As to `O=C1CC(O)(c2ccccc2)C(c2ccccc2)=C1c1ccccc1` (stereo not given), the TGI with SK-MEL-5 melanoma is 86.7 µM; with CAKI-1 renal, over 100 µM; with SK-OV-3 ovarian it was over 100 µM; in the test on SF-268 CNS, over 100 µM; in the test on HL-60(TB) leukemia, 56.3 µM; with NCI-H460 lung it was over 100 µM. The TGI in the test on OVCAR-5 ovarian and in the test with M14 melanoma was over 100 µM each time.
Take `CCOc1ccccc1NC(=O)CCc1n[nH]c(=S)o1`: the TGI in the test with SK-MEL-5 melanoma, in the test with CAKI-1 renal, in the test with SK-OV-3 ovarian, in the test with SF-268 CNS, in the test with HL-60(TB) leukemia and in the test with M14 melanoma was over 100 µM each time.
Regarding `O=C1c2ccccc2C(=O)N1C/C=C/CO`, the TGI in the test with SK-MEL-5 melanoma, with CAKI-1 renal, in the test with SK-OV-3 ovarian, in the test with SF-268 CNS, in the test on HL-60(TB) leukemia and in the test with NCI-H460 lung was over 100 µM throughout. Further, the TGI in the test on M14 melanoma is over 100 µM.
For `CCC[CH2][Sn]1([CH2]CCC)[O]C(=O)c2ccc(C)cc2[O]1`, the GI50 with SK-MEL-5 melanoma is 1.38 µM; in the test with CAKI-1 renal it was 0.229 µM; with SK-OV-3 ovarian, 1.4 µM; with SF-268 CNS, 0.46 µM; in the test on HL-60(TB) leukemia it was 0.273 µM; with NCI-H460 lung, 1.77 µM. Further, the GI50 in the test on OVCAR-5 ovarian is 1.67 µM; in the test on M14 melanoma it was 0.584 µM. The TGI stood at 2.7 µM in the test with SK-MEL-5 melanoma; 0.669 µM with CAKI-1 renal; 2.75 µM in the test with SK-OV-3 ovarian; 1.46 µM with SF-268 CNS; 1.01 µM in the test with HL-60(TB) leukemia; 4.12 µM with NCI-H460 lung. Moreover, the TGI was 3.05 µM in the test on OVCAR-5 ovarian and 1.84 µM in the test on M14 melanoma.
For `COc1cc2c(cc1OC)C(=O)Cc1ccc(OC)c(OC)c1CN(C)CC2`, the TGI was over 100 µM with SK-MEL-5 melanoma; over 100 µM in the test with CAKI-1 renal; over 100 µM in the test with SK-OV-3 ovarian; over 100 µM in the test with SF-268 CNS; 84.4 µM in the test with NCI-H460 lung; over 100 µM in the test with OVCAR-5 ovarian. In addition, in the test with M14 melanoma, the TGI was over 100 µM.
Regarding `Clc1cc2n[se]nc2cc1Cl`, the TGI in the test with SK-MEL-5 melanoma, in the test on CAKI-1 renal, in the test with SK-OV-3 ovarian, with SF-268 CNS, in the test on HL-60(TB) leukemia and in the test on NCI-H460 lung was over 100 µM throughout. Also, the TGI with OVCAR-5 ovarian and in the test on M14 melanoma was over 100 µM throughout.
`CC[C@@H]1C[C@H]2CC3c4[nH]c5ccc(O)cc5c4CCN(C2)C31`: the TGI with CAKI-1 renal, in the test with SF-268 CNS, in the test on HL-60(TB) leukemia, in the test on NCI-H460 lung, in the test with OVCAR-5 ovarian and in the test on M14 melanoma was over 100 µM each time.
Turning to `Cc1cc2c(c3oc(C4(C)OC4C4OC4C)cc(=O)c13)C(=O)c1c(O)c(C3CC(C)(N(C)C)C(O)C(C)O3)cc(C3CC(N(C)C)C(O)C(C)O3)c1C2=O` (stereo not given), the TGI with SK-MEL-5 melanoma was 0.0014 µM and 0.000447 µM; in the test on BT-549 breast, 0.000414 µM and 0.00222 µM; with OVCAR-5 ovarian, 0.000244 µM and 0.00111 µM; in the test with M14 melanoma it was 0.000196 µM and 0.000148 µM. Also, the GI50 with CAKI-1 renal was 0.000145 µM; with SK-OV-3 ovarian it was 0.00238 µM; in the test on BT-549 breast, 0.000234 µM; in the test with NCI-H460 lung, under 1e-05 µM; in the test with M14 melanoma, 0.000101 µM.
For the molecule `CCCCN(CCCC)CCCn1c(=O)c2c3ccccc3n(C)c2n2nnc(-c3ccccc3)c12`, the GI50 is 18.2 µM in the test on PC-3 prostate; 31.9 µM with SK-MEL-5 melanoma; 49.8 µM in the test with CAKI-1 renal; 30.3 µM with SK-OV-3 ovarian; over 100 µM with SF-268 CNS; 2.54 µM with HL-60(TB) leukemia. Further, the GI50 in the test with NCI-H460 lung is 41.2 µM; in the test on OVCAR-5 ovarian, 22.3 µM; in the test on M14 melanoma, 21.6 µM. Further, the TGI was 47.4 µM in the test with PC-3 prostate; over 100 µM in the test with SK-MEL-5 melanoma; over 100 µM in the test with CAKI-1 renal; over 100 µM in the test on SK-OV-3 ovarian; over 100 µM with SF-268 CNS; 41.7 µM in the test on HL-60(TB) leukemia. The TGI in the test on NCI-H460 lung, in the test with OVCAR-5 ovarian and in the test with M14 melanoma was over 100 µM in each case.
For `Fc1cccc2c1cc1ccc3cccc4ccc2c1c34`, the TGI in the test on SK-MEL-5 melanoma, in the test with CAKI-1 renal, in the test with SK-OV-3 ovarian, in the test on SF-268 CNS, with HL-60(TB) leukemia and in the test with OVCAR-5 ovarian was over 100 µM in each case. Also, the TGI with M14 melanoma is over 100 µM.
Consider `C[n+]1ccc(-c2c3nc(c(-c4cc[n+](C)cc4)c4ccc([n-]4)c(-c4cc[n+](C)cc4)c4nc(c(-c5cc[n+](C)cc5)c5ccc2[n-]5)C=C4)C=C3)cc1.[I-].[Zn+2]`, for which the GI50 was 15.9 µM with SK-MEL-5 melanoma; 20 µM with CAKI-1 renal; 33 µM in the test on SK-OV-3 ovarian; 11 µM in the test on SF-268 CNS; 21.5 µM in the test with HL-60(TB) leukemia; 23.5 µM in the test on NCI-H460 lung. Also, the results for the GI50 with OVCAR-5 ovarian and in the test with M14 melanoma were over 100 µM and 14 µM, respectively. The TGI in the test on SK-MEL-5 melanoma is 37.4 µM; in the test with CAKI-1 renal it was 41.7 µM; in the test on SK-OV-3 ovarian it was 69.5 µM; in the test on SF-268 CNS, 25.9 µM; in the test on HL-60(TB) leukemia it was 42 µM; in the test on NCI-H460 lung it was 53.5 µM. Further, the TGI was over 100 µM in the test with OVCAR-5 ovarian and 35.5 µM in the test with M14 melanoma.
